Data reported in patent US9597407B2, “Targeted antimicrobial moieties” (C3 Jian, Inc., priority 2009, dated 2017).
Entries after “also recorded” stand apart in the source; their conditions may differ. Square brackets hold non-standard residues; d marks the D form. Ends that are not written are not given here. Aib = CC(C)(N)C(=O)O

Test system: bacteria
Experiment: Binding of targeting peptides to microorganisms (Table 3)
Settings: preferably 1x PBS
[1] = microorganism bound by the targeting peptide, binding in aqueous buffers chosen by peptide solubility
[2] = peptide binding in aqueous buffers that varied depending on peptide solubility
[3] = peptide binding in aqueous buffers varied by peptide solubility
[4] = microorganism the targeting peptide binds, binding in aqueous buffers that varied with peptide solubility

## PF-311 (IDAVTKKKTTCMIRAPTKIPIAHTDN; Peptide with targeting and/or antimicrobial activity)
[1]
  Target(s): C. difficile

## PF-510 (WYLYKKQSNQNDRGIPK; Peptide with targeting and/or antimicrobial activity)
[2]
  Target(s) (microorganisms bound by the targeting peptide): S. mutans; also recorded: E. coli

## PF-798 (ALHSKGIKVMADWVPDQMYA; Peptide with targeting and/or antimicrobial activity)
[2]
  Target(s) (microorganism bound by the targeting peptide): S. mutans

## 1T-91 (TSVRPGAAGAAVPAGAAGAAGAGWRWP; Peptide with targeting and/or antimicrobial activity) [Peptide 1T-91]
[3]
  Target(s) (microorganism bound by the targeting peptide): S. mitis; also recorded: S. mutans; also recorded: S. oralis; also recorded: S. sanguinis

## HIKETR (Peptide with targeting and/or antimicrobial activity) [PF-222]
[1]
  Target(s): S. epidermidis

## 1T-269 (PLYVAAVEKINTAKKH; Peptide with targeting and/or antimicrobial activity) [Peptide 1T-269]
[4]
  Target(s): F. nucleatum; also recorded: S. mutans; also recorded: S. oralis; also recorded: S. sanguinis

## TT-305 (ARNALNMRDVPVDAAIIGIIDGMDEE; Peptide with targeting and/or antimicrobial activity)
[4]
  Target(s): F. nucleatum

## PF-254 (FIYGVGFVPHFWLWKWLFSPWIAWPLMLLGYYIWFLT; Peptide with targeting and/or antimicrobial activity)
[1]
  Target(s): S. epidermidis; also recorded: M. luteus; also recorded: P. aeruginosa; also recorded: A. baumannii

## PF-142 (GIDRGCQAAR; Peptide with targeting and/or antimicrobial activity)
[1]
  Target(s): S. mutans

## 1T-93 (AMRSVNQA; Peptide with targeting and/or antimicrobial activity) [Peptide 1T-93]
[3]
  Target(s) (microorganism bound by the targeting peptide): S. epidermidis; also recorded: S. gordonii; also recorded: S. mitis; also recorded: S. mutans; also recorded: S. oralis; also recorded: S. sanguinis

## PF-348 (ESASAAEWYNPNMNVKKAICMG; Peptide with targeting and/or antimicrobial activity)
[1]
  Target(s): B. subtilis; also recorded: E. coli; also recorded: P. aeruginosa; also recorded: C. albicans; also recorded: E. faecalis; also recorded: C. jejuni

## PF-338 (KGTSCPDQLSKAIRQSI; Peptide with targeting and/or antimicrobial activity)
[1]
  Target(s): S. mutans

## PF-314 (ECLKKAIKSKALNKAFKIDVPDEVYDNLLMELEEYEK; Peptide with targeting and/or antimicrobial activity)
[1]
  Target(s): S. mutans

## 1T-18 (YSKTLHFAD; Peptide with targeting and/or antimicrobial activity) [Peptide 1T-18]
[3]
  Target(s) (microorganism bound by the targeting peptide): S. aureus; also recorded: S. epidermidis; also recorded: C. striatum; also recorded: P. aeruginosa

## PF-777 (PGADGKLAEASAAIARLVRS; Peptide with targeting and/or antimicrobial activity)
[2]
  Target(s) (microorganism bound by the targeting peptide): Mycobacteria spp.

## PF-213 (MTTGVDFIIEKV; Peptide with targeting and/or antimicrobial activity)
[1]
  Target(s): S. epidermidis

## 1T-44 (DPALADFAAGMRAQVRT; Peptide with targeting and/or antimicrobial activity) [Peptide 1T-44]
[3]
  Target(s) (microorganism bound by the targeting peptide): S. mutans; also recorded: S. aureus; also recorded: S. epidermidis; also recorded: C. jeikeium; also recorded: C. striatum; also recorded: P. aeruginosa

## PF-248 (ILSKLWFWMINSLGVVLLVSYWLLAKWGVA; Peptide with targeting and/or antimicrobial activity)
[1]
  Target(s): S. mutans; also recorded: S. epidermidis; also recorded: M. luteus; also recorded: E. coli; also recorded: P. aeruginosa; also recorded: A. baumannii

## PF-502 (NKGKQMQDQTGKQPIVDNG; Peptide with targeting and/or antimicrobial activity)
[2]
  Target(s) (microorganisms bound by the targeting peptide): S. mutans

## PF-751 (AESSPAQETT; Peptide with targeting and/or antimicrobial activity)
[2]
  Target(s) (microorganism bound by the targeting peptide): S. epidermidis; also recorded: E. coli; also recorded: C. albicans; also recorded: C. jeikeium

## PF-793 (YTQ[Aib]NNASAYAMLLTNKDTVP; ends and bridges not checked)
[2]
  Target(s) (microorganism bound by the targeting peptide): S. mutans

## PF-495 (KGIYKKRTY; Peptide with targeting and/or antimicrobial activity)
[2]
  Target(s) (microorganisms bound by the targeting peptide): S. mutans; also recorded: E. coli

## PF-182 (LPATRDKTRVPASVAGAP; Peptide with targeting and/or antimicrobial activity)
[1]
  Target(s): S. epidermidis; also recorded: M. luteus; also recorded: E. coli; also recorded: E. faecalis; also recorded: C. jeikeium

## 1T-3 (VLGIAGGLDAYGELVGGN; Peptide with targeting and/or antimicrobial activity) [Peptide 1T-3]
[3]
  Target(s) (microorganism bound by the targeting peptide): S. mutans; also recorded: S. gordonii

## PF-266 (DQEKKNKTEESTEQ; Peptide with targeting and/or antimicrobial activity)
[1]
  Target(s): S. mutans

## 1T-63 (EPLILKELVRNLFLFCYARALR; Peptide with targeting and/or antimicrobial activity) [Peptide 1T-63]
[3]
  Target(s) (microorganism bound by the targeting peptide): S. aureus; also recorded: S. epidermidis; also recorded: C. jeikeium; also recorded: C. xerosis; also recorded: C. striatum; also recorded: P. aeruginosa

## PF-018 (YYKTYFKEV; Peptide with targeting and/or antimicrobial activity)
[4]
  Target(s): E. coli; also recorded: C. jeikeium

## 1T-218 (KLIFAALGLVFLLIGLRDSRSK; Peptide with targeting and/or antimicrobial activity) [Peptide 1T-218]
[4]
  Target(s): F. nucleatum; also recorded: S. sanguinis

## PF-282 (QNNDTSAWCGSAHKNGNS; Peptide with targeting and/or antimicrobial activity)
[1]
  Target(s): S. mutans

## 1T-19 (PGAFRNPQMPRG; Peptide with targeting and/or antimicrobial activity) [Peptide 1T-19]
[3]
  Target(s) (microorganism bound by the targeting peptide): S. aureus; also recorded: S. epidermidis; also recorded: P. aeruginosa

## MKKLVAALAVIVILTGCVYDPVNYDKIHDQEFQDHLRQNG [PF-252]
[1]
  Target(s): S. mutans

## 1T-20 (PALVDLSNKEAVWAVLDDHS; Peptide with targeting and/or antimicrobial activity) [Peptide 1T-20]
[3]
  Target(s) (microorganism bound by the targeting peptide): S. mutans; also recorded: P. aeruginosa

## 1T-59 (AVGNNLGKDNDSGHRGKKHRKHKHR; Peptide with targeting and/or antimicrobial activity) [Peptide 1T-59]
[3]
  Target(s) (microorganism bound by the targeting peptide): S. aureus; also recorded: S. epidermidis; also recorded: P. aeruginosa

## PF-218 (SETPEKPVGTFFYSIYYKIIL; Peptide with targeting and/or antimicrobial activity)
[1]
  Target(s): S. epidermidis; also recorded: M. luteus; also recorded: P. aeruginosa; also recorded: A. baumannii

## PF-507 (LALSIANLFKKKA; Peptide with targeting and/or antimicrobial activity)
[2]
  Target(s) (microorganisms bound by the targeting peptide): S. mutans; also recorded: E. coli
